Activity calls are given as the source filed them. No cut-off for these calls is given here.
What was measured:
[1] = Intrinsic activity at human melatonin MT1 receptor expressed in CHO cells assessed as [35S]GTPgammaS binding after 1 hr relative to melatonin; type: functional
[2] = Intrinsic activity at human melatonin MT2 receptor expressed in CHO cells assessed as [35S]GTPgammaS binding after 1 hr; type: functional, cell-based
[3] = Displacement of 2-[I]iodomelatonin from human melatonin MT1 receptor after 120 mins
[4] = Displacement of 2-[I]iodomelatonin from human melatonin MT2 receptor after 120 mins
[5] = Intrinsic activity at human melatonin MT2 receptor expressed in CHO cells assessed as [35S]GTPgammaS binding after 1 hr relative to melatonin; type: functional
[6] = Intrinsic activity at human melatonin MT1 receptor expressed in CHO cells assessed as [35S]GTPgammaS binding after 1 hr; type: functional, cell-based
Mus musculus [7] = assay: Anxiolytic activity in C3H/he mouse assessed as increase in number of transitions at 10 to 40 mg/kg, po by light/dark box test; type: functional, organism-based
Rattus norvegicus = assay: Decrease of anticipation of social defeat in rat assessed as reduction of duration of immobility and vocalization at 40 mg/kg, ip; type: functional, organism-based; design: dose 40 mg/kg
Mus musculus [8] = assay: Anxiolytic activity in C3H/he mouse assessed as increase in time spent in light box at 10 to 40 mg/kg, po by light/dark box test; type: functional, organism-based
Mus musculus [9] = assay: Increase of resynchronization of activity rhythm in C3H/he mouse at 20 mg/kg, ip; type: functional; details: route intraperitoneal
Mus musculus [10] = assay: Increase of neophobia in C3H/he mouse assessed as time spent in unfamiliar compartment at 1 to 25 mg/kg, po; type: functional, organism-based
Mus musculus [11] = assay: Anxiolytic activity in C3H/he mouse assessed as increase in time spent in light box at 20 to 40 mg/kg, po by light/dark box test; type: functional, organism-based
Mus musculus [12] = assay: Anxiolytic activity in C3H/he mouse assessed as increase in number of transitions at 20 to 40 mg/kg, po by light/dark box test; type: functional, organism-based
Mus musculus [13] = assay: Increase of neophobia in C3H/he mouse assessed as time spent in unfamiliar compartment at 1 to 10 mg/kg, po; type: functional, organism-based

Q: For COc1cccc(-c2oc3ccc4c(c3c2CCNC(C)=O)CCCO4)c1, which Emax [1] is on record?
A: 30%

Q: What about the EC50 [2] of the same compound?
A: 0.2 nM

Q: What about the Ki [3] of the same compound?
A: 0.33 nM

Q: What about the Ki [4] of the same compound?
A: 0.3 nM

Q: What about the Emax [5] of the same compound?
A: 68%

Q: What about the EC50 [6] of the same compound?
A: 1.8 nM

Q: Which Emax [1] does the source give for O=C(CI)NCCc1coc2ccc3c(c12)CCCO3 here?
A: 121%

Q: And the EC50 [2]?
A: 0.1 nM

Q: What about the Ki [3] of the same compound?
A: 0.07 nM

Q: And the Ki [4]?
A: 0.08 nM

Q: What about the Emax [5] of the same compound?
A: 78%

Q: What about the EC50 [6] of the same compound?
A: 0.2 nM

Q: With CCCCNC(=S)NCCc1coc2ccc3c(c12)CCCO3 as the compound, how does the Ki [3] read?
A: 23 nM

Q: What about the Ki [4] of the same compound?
A: 46 nM

Q: For CC(=O)NCCc1coc2cc(C(=O)c3ccccc3)c3c(c12)CCCO3, which Ki [3] is on record?
A: 44 nM

Q: And the Ki [4]?
A: 40 nM

Q: For CCCCNC(=O)NCCc1coc2ccc3c(c12)CCCO3, which Ki [3] is on record?
A: 50 nM

Q: What about the Ki [4] of the same compound?
A: 23 nM

Q: With C=Cc1oc2ccc3c(c2c1CCNC(C)=O)CCCO3 as the compound, how does the Emax [1] read?
A: 113%

Q: What about the EC50 [2] of the same compound?
A: 0.21 nM

Q: And the Ki [3]?
A: 0.05 nM

Q: What about the Ki [4] of the same compound?
A: 0.2 nM

Q: What about the Emax [5] of the same compound?
A: 120%

Q: What about the EC50 [6] of the same compound?
A: 0.08 nM

Q: Which Emax [1] does the source give for CC(=O)NCCc1c(-c2cccc(CO)c2)oc2ccc3c(c12)CCCO3 here?
A: 32%

Q: And the EC50 [2]?
A: 0.3 nM

Q: And the Ki [3]?
A: 2.2 nM

Q: What about the Ki [4] of the same compound?
A: 0.67 nM

Q: What about the Emax [5] of the same compound?
A: 67%

Q: And the EC50 [6]?
A: 8.5 nM

Q: Which Ki [3] does the source give for COc1ccccc1C(=O)c1oc2ccc3c(c2c1CCNC(C)=O)CCCO3 here?
A: 53 nM

Q: And the Ki [4]?
A: 13 nM

Q: Which Ki [3] does the source give for CCCNC(=O)NCCc1coc2ccc3c(c12)CCCO3 here?
A: 1.3 nM

Q: What about the Ki [4] of the same compound?
A: 0.74 nM

Q: With COc1ccc(C(=O)c2oc3ccc4c(c3c2CCNC(C)=O)CCCO4)cc1 as the compound, how does the Ki [3] read?
A: 105 nM

Q: What about the Ki [4] of the same compound?
A: 2.7 nM

Q: With COc1ccc(C(=O)c2cc3occ(CCNC(C)=O)c3c3c2OCCC3)cc1 as the compound, how does the Ki [3] read?
A: 5370 nM

Q: And the Ki [4]?
A: 3860 nM

Q: Which Ki [3] does the source give for COc1cccc(C(=O)c2oc3ccc4c(c3c2CCNC(C)=O)CCCO4)c1 here?
A: 130 nM

Q: What about the Ki [4] of the same compound?
A: 0.83 nM

Q: Which Emax [1] does the source give for C=CCC(=O)NCCc1coc2ccc3c(c12)CCCO3 here?
A: 68%

Q: And the EC50 [2]?
A: 1.5 nM

Q: And the Ki [3]?
A: 0.07 nM

Q: What about the Ki [4] of the same compound?
A: 0.08 nM

Q: What about the Emax [5] of the same compound?
A: 57%

Q: What about the EC50 [6] of the same compound?
A: 2.5 nM

Q: Which Emax [1] does the source give for C=CC(=O)NCCc1coc2ccc3c(c12)CCCO3 here?
A: 80%

Q: What about the EC50 [2] of the same compound?
A: 51 nM

Q: And the Ki [3]?
A: 0.11 nM

Q: What about the Ki [4] of the same compound?
A: 0.38 nM

Q: What about the Emax [5] of the same compound?
A: 74%

Q: What about the EC50 [6] of the same compound?
A: 13 nM

Q: With CC(=O)NCCc1c(-c2cccc(O)c2)oc2ccc3c(c12)CCCO3 as the compound, how does the Emax [1] read?
A: 46%

Q: And the EC50 [2]?
A: 0.21 nM

Q: And the Ki [3]?
A: 0.87 nM

Q: What about the Ki [4] of the same compound?
A: 0.21 nM

Q: And the Emax [5]?
A: 93%

Q: And the EC50 [6]?
A: 4.6 nM

Q: What does the source list for C=CCc1oc2ccc3c(c2c1CCNC(C)=O)CCCO3?
A: Emax [1]: 104%; EC50 [2]: 0.08 nM; Ki [3]: 0.03 nM; Ki [4]: 0.12 nM; Emax [5]: 109%; EC50 [6]: 0.15 nM

Q: With CC(=O)NCCc1c(C(=O)c2cccc(C(F)(F)F)c2)oc2ccc3c(c12)CCCO3 as the compound, how does the EC50 [2] read?
A: 16 nM

Q: What about the Ki [3] of the same compound?
A: 326 nM

Q: And the Ki [4]?
A: 2.6 nM

Q: What about the Emax [5] of the same compound?
A: 44%

Q: What about the EC50 [6] of the same compound?
A: > 10000 nM

Q: Which Ki [3] does the source give for CCCNC(=S)NCCc1coc2ccc3c(c12)CCCO3 here?
A: 5.4 nM

Q: And the Ki [4]?
A: 4.4 nM

Q: What does the source list for COc1cccc(C(=O)c2cc3occ(CCNC(C)=O)c3c3c2OCCC3)c1?
A: Emax [1]: 56%; EC50 [2]: 149 nM; Ki [3]: 35 nM; Ki [4]: 80 nM; Emax [5]: 58%; EC50 [6]: 455 nM

Q: For COc1ccc2occ(CCNC(C)=O)c2c1, which Emax [1] is on record?
A: 118%

Q: What about the EC50 [2] of the same compound?
A: 0.7 nM

Q: What about the Ki [3] of the same compound?
A: 0.16 nM

Q: And the Emax [5]?
A: 101%

Q: What about the EC50 [6] of the same compound?
A: 5.5 nM

Q: What does the source list for CC(=O)NCCc1coc2ccc3c(c12)CCCO3?
A: Activity (Mus musculus [7]): Active; Emax [1]: 98%; Activity (Rattus norvegicus): Active; EC50 [2]: 0.19 nM; Activity (Mus musculus [8]): Active; Ki [3]: 0.31 nM; Activity (Mus musculus [9]): 30%; Activity (Mus musculus [10]): Active; Ki [4]: 0.59 nM; Emax [5]: 68%; EC50 [6]: 0.8 nM

Q: For CCCC(=O)c1oc2ccc3c(c2c1CCNC(C)=O)CCCO3, which Ki [3] is on record?
A: 0.97 nM

Q: What about the Ki [4] of the same compound?
A: 0.1 nM

Q: For CC(=O)NCCc1coc2cc(Cc3cccc(C(F)(F)F)c3)c3c(c12)CCCO3, which Ki [3] is on record?
A: 9 nM

Q: What about the Ki [4] of the same compound?
A: 13 nM

Q: What does the source list for C/C=C/C(=O)NCCc1coc2ccc3c(c12)CCCO3?
A: Emax [1]: 92%; EC50 [2]: 14 nM; Ki [3]: 1.3 nM; Ki [4]: 2.6 nM; Emax [5]: 65%; EC50 [6]: 61 nM

Q: For COc1ccccc1C(=O)c1cc2occ(CCNC(C)=O)c2c2c1OCCC2, which Ki [3] is on record?
A: 823 nM

Q: Which Ki [3] does the source give for CC(=O)NCCc1coc2cc(C(=O)c3cccc(C(F)(F)F)c3)c3c(c12)CCCO3 here?
A: 34 nM

Q: What about the Ki [4] of the same compound?
A: 29 nM

Q: For CC(=O)NCCc1c(-c2ccccc2)oc2ccc3c(c12)CCCO3, which Emax [1] is on record?
A: 107%

Q: And the EC50 [2]?
A: 0.07 nM

Q: And the Ki [3]?
A: 0.04 nM

Q: What about the Ki [4] of the same compound?
A: 0.14 nM

Q: And the Emax [5]?
A: 104%

Q: What about the EC50 [6] of the same compound?
A: 0.12 nM

Q: Which results are given for CC(=O)N(C)CCc1coc2ccc3c(c12)CCCO3?
A: EC50 [2]: > 10000 nM; Ki [3]: 14 nM; Ki [4]: 13 nM; EC50 [6]: > 10000 nM

Q: For COc1ccc2[nH]cc(CCNC(C)=O)c2c1 [MELATONIN], which EC50 [2] is on record?
A: 0.4 nM

Q: And the Activity (Mus musculus [11])?
A: Active

Q: And the Activity (Mus musculus [12])?
A: Active

Q: And the Ki [3]?
A: 0.23 nM

Q: And the Activity (Mus musculus [13])?
A: Active

Q: And the EC50 [6]?
A: 1.7 nM

Q: With S=C(NCCc1coc2ccc3c(c12)CCCO3)NC1CC1 as the compound, how does the Emax [1] read?
A: 42%

Q: And the EC50 [2]?
A: 38 nM

Q: And the Ki [3]?
A: 5.6 nM

Q: What about the Ki [4] of the same compound?
A: 7.4 nM

Q: And the Emax [5]?
A: 46%

Q: And the EC50 [6]?
A: 143 nM

— ChEMBL document CHEMBL3102695, “New melatonin (MT1/MT2) ligands: design and synthesis of (8,9-dihydro-7H-furo[3,2-f]chromen-1-yl) derivatives” (Bioorg Med Chem, 2014)
